Measured values from patent US7220748B2, “Use of 4-(2-Flurophenyl)-6-methyl-2-(1-piperazinyl)thieno(2,3-D)-pyrimidine for treating of urinary incontinence” (Arachnova Therapeutics Ltd., priority 2002, dated 2007).
“And” between values parts separate entries of the source, which are not always exact repeats. Equal entries are not always repeated.

Test system: urethra/internal sphincter
Assay: Urethral perfusion pressure, vesicular pressure and external sphincter EMG in anaesthetised female rats
Format: in vivo, rat
Method: Female Sprague-Dawley rats (225–350 g) were anaesthetised using urethane. The bladder was exposed through a midline incision into the abdomen and intravesicular pressure was recorded via a catheter inserted into the bladder. A second catheter was inserted into the bladder to allow infusion of saline using a syringe pump when required. A third catheter was inserted into the bladder and wedged into position in the neck of the bladder with the catheter extending into the urethra. This set-up allowed constant infusion of saline into the urethra whilst urethral pressure was recorded. Changes in urethral pressure are assumed to reflect changes in urethral resistance. In each animal, electromyographic (EMG) recordings were made of urethral striated muscle activity by inserting 2 fine copper electrodes either side of the urethral opening.
Once stable, bladder and urethral pressures were recorded, the bladder was inflated by direct infusion of physiological saline into the bladder at a rate of 0.046 ml/min. This rate approximates the maximum hourly diuresis rate. Infusion into the bladder was terminated prior to evoking micturition and the bladder volume maintained. During and after saline infusion, simultaneous recordings were made of urethral perfusion pressure and of external sphincter EMG activity. Once these parameters had stabilised, autonomic drive to the lower urinary tract was inhibited by administration of hexamethonium (10 mg/kg i.v.) and changes to urethral perfusion pressure and external sphincter EMG recorded. Decamethonium (30 mg/kg i.v.) was then added to remove striated muscle activity. In one group of animals, prior to intravesicular infusion of saline a single bolus dose of MCI-225 was administered (3 mg/kg i.v.). In a second group of animals a bolus dose of vehicle was administered. The effect of MCI-225 and vehicle was determined by analysing the changes in urethral perfusion pressure and external sphincter EMG activity during and after infusion and following administration of the ganglion blocker hexamethonium and then finally decamethonium to block the striated muscle activity of the external sphincter.

Cc1cc2c(-c3ccccc3F)nc(N3CCNCC3)nc2s1.Cl.O [MCI-225, 4-(2-Fluorophenyl)-6-methyl-2-(1-piperazinyl)thieno[2,3-D]pyrimidine monohydrate hydrochloride]
Effect on tone of the urethra/internal sphincter (3 mg/kg i.v., anaesthetised female rats): increased the tone of the urethra/internal sphincter
Decrease in urethral perfusion pressure after decamethonium, from values before hexamethonium (3 mg/kg i.v., after hexamethonium 10 mg/kg i.v. then decamethonium 30 mg/kg i.v., vehicle 44±4%): 64±7%
Fall in external sphincter activity (EUS-EMG) after hexamethonium (3 mg/kg i.v., after hexamethonium 10 mg/kg i.v., compared with vehicle-treated animals): Larger falls
Drop in urethral perfusion pressure after hexamethonium (3 mg/kg i.v., after hexamethonium 10 mg/kg i.v., vehicle 35±7%): 55±5%
Increase in urethral pressure from baseline (3 mg/kg i.v., baseline vs after intravesicular infusion, p=0.04 Students t test, vehicle 29%): 77%
Vesicular pressure (VP) after intravesicular infusion (anaesthetized female rats, after intravesicular saline infusion, 3 mg kg^-1 i.v., n=3): 8 ± 1 mmHg
Urethral perfusion pressure (UP) after intravesicular infusion (anaesthetized female rats, after intravesicular saline infusion, 3 mg kg^-1 i.v., n=3, monohydrate hydrochloride): 23±2 mmHg
Baseline urethral perfusion pressure (UP) (anaesthetized female rats, baseline before intravesicular infusion, 3 mg kg^-1 i.v., n=3, monohydrate hydrochloride): 13±1 mmHg and 13 ± 2 mmHg
